From patent US20230091810A1, “FIRST-IN-CLASS OF SHMT2 AND MTHFD2 INHIBITORS AS ANTITUMOR AGENTS” (Duquesne University of the Holy Spirit, priority 2017, published 2023)

Molecular target: AICARFTase (Homo sapiens, UniProt P31939)
Assay: in vitro inhibition of purified AICARFTase (ATIC)

Chain of AICARFTase (P31939 whole entry): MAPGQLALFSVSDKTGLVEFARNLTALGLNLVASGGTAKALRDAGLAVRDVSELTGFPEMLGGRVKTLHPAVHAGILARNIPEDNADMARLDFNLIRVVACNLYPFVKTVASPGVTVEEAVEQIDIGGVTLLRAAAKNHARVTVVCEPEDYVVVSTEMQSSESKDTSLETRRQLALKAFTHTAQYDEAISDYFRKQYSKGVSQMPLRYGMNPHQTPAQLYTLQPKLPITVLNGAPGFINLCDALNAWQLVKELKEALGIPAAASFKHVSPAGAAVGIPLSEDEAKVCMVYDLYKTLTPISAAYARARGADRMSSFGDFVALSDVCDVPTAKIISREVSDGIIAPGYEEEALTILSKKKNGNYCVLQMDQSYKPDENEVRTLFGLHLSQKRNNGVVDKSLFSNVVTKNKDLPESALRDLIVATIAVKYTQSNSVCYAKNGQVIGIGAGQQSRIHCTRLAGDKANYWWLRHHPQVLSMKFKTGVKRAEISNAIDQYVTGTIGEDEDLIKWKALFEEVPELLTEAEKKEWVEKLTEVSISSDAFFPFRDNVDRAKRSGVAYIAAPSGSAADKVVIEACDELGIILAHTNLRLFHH

Nc1nc2ccn(CCCc3ccc(C(=O)N[C@@H](CCC(=O)O)C(=O)O)cc3)c2c(=O)[nH]1 [AGF291]
Ki: 10.9 ± 6.07 µM
